In ChEMBL document CHEMBL1141832, “A new discorhabdin from two sponge genera” (1999):
In brackets after ≈: the same amount, converted by molar mass.

Test: Antitumor activity against human NCI60 cells
Assay type: functional

## O=C1C=C2S[C@H]3C[C@]2(C=C1Br)C1=C(N3)C(=O)c2[nH]cc3ccnc1c23 [DISCORHABDIN Q]
  GI50: 0.5 µg/mL (≈ 1.21 µM)
